Where a name gives a salt, the structure may show the parent alone.

Sequence of hERG (Q12809 whole entry): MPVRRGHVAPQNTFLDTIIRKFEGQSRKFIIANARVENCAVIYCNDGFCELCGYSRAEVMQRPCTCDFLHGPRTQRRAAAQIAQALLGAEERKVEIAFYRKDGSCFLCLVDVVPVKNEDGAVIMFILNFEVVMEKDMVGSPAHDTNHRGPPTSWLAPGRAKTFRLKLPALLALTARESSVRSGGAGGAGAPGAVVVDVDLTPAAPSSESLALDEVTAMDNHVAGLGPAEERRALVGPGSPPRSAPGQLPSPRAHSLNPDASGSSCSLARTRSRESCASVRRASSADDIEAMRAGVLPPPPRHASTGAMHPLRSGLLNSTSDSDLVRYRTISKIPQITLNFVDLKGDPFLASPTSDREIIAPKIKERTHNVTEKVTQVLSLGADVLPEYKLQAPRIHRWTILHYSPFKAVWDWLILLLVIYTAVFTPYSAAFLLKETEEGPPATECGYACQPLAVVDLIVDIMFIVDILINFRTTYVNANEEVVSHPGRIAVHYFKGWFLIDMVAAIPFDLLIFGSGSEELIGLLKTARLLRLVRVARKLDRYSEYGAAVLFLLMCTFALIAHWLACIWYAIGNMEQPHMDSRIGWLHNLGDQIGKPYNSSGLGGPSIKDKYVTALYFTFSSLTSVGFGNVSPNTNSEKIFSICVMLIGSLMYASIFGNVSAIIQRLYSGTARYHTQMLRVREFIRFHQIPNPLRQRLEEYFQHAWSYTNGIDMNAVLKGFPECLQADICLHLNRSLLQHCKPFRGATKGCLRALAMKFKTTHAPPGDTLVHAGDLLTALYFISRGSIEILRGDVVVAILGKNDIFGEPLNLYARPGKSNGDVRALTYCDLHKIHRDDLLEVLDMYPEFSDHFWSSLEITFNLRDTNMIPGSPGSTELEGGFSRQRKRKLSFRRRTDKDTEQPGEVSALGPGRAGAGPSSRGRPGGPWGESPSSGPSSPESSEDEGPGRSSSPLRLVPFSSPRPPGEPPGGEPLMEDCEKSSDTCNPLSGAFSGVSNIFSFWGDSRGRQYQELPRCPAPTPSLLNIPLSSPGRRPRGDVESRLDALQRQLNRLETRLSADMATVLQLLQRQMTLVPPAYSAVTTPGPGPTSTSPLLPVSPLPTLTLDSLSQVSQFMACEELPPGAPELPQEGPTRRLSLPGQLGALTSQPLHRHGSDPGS

This assay has as its target hERG (Homo sapiens, UniProt Q12809). Kind of assay: cell-based. Conditions: (-LOG10(IC50), µM).
Take `Cc1cc(C)c(C(=O)P(=O)(c2ccccc2)c2ccccc2)c(C)c1` [Diphenyl(2,4,6-trimethylbenzoyl)phosphine oxide]: the IC50 – broadly, the concentration that inhibits the measured activity by half – is 20.3 µM.

With `CC[N+](CC)(CC)CCOC(=O)C(C1CCCC1)C1CCCC1` [Diponium bromide], the half-maximal inhibitory concentration (IC50) was 9.52 µM.

Consider `CC(=O)OCCN(CCOC(C)=O)c1ccc(/N=N/c2ccc([N+](=O)[O-])cc2C#N)cc1` [Disperse Red 82], for which the IC50 was 24.5 µM.

`CCOP(=S)(OCC)SCCSCC` [Disulfoton] had an IC50 of 43.3 µM.

In turn, `N#Cc1sc2c(=O)c3ccccc3c(=O)c=2sc1C#N` [Dithianon] had an IC50 of 30.9 µM.

`CCCCCCCCCCCCN` [Dodecylamine hydrochloride] showed an IC50 of 13.3 µM.

Consider `CCCCCCCCCCCC[N+](C)(C)C` [Dodecyltrimethylammonium bromide], for which it took 21 µM to reach half-maximal inhibition (IC50).

As to `CCCCCCCCCCCC[N+](C)(C)C` [Dodecyltrimethylammonium chloride], the IC50 is 18 µM.

For the compound `CCCCCCCCCCCC[N+](C)(C)CCOc1ccccc1` [Domiphen bromide], half-maximal inhibition (IC50) required 1.34 µM.

For `Cc1ccc(-n2nc(C(C)(C)C)cc2NC(=O)Nc2ccc(OCCN3CCOCC3)c3ccccc23)cc1` [Doramapimod], the IC50 is 20.1 µM.

As for `Cc1ccc(CCn2c3c(c4cc(Cl)ccc42)CN(C)CC3)cn1` [Dorastine], the IC50 is 15.7 µM.

Take `CCN(CC)CCOC(=O)C(c1ccccc1)C1CCCCC1` (stereo not shown) [Drofenine hydrochloride]: it took 7.86 µM to reach half-maximal inhibition (IC50).

For the compound `CCCCc1oc2ccc(NS(C)(=O)=O)cc2c1C(=O)c1ccc(OCCCN(CCCC)CCCC)cc1` [Dronedarone], the IC50 was 0.849 µM.

Turning to `CCCCOc1ccc(C(=O)CCN2CCCCC2)cc1` [Dyclonine hydrochloride], the IC50 is 20.1 µM.

Regarding `CCOP(=S)(Oc1ccc([N+](=O)[O-])cc1)c1ccccc1` (stereo not shown) [EPN], the IC50 is 0.776 µM.

As to `CN1CCc2cc(Cl)c(O)cc2[C@H]2c3ccccc3CC[C@@H]21` [Ecopipam], inhibition was half-maximal at 10.3 µM (IC50).

Consider `CN1CCN(c2ccccc2/C=C2\SCCN(c3ccc(Cl)c(Cl)c3)C2=O)CC1` [Elzasonan], for which it took 1.61 µM to reach half-maximal inhibition (IC50).

`CCOCCn1c(N2CCCN(C)CC2)nc2ccccc21` [Emedastine difumarate] gave an IC50 of 6.24 µM.

Compound `O=S1OC[C@@H]2[C@H](CO1)[C@]1(Cl)C(Cl)=C(Cl)[C@@]2(Cl)C1(Cl)Cl` (stereo partly shown) [Endosulfan I] came in with an IC50 of 43.6 µM.

In turn, `O=S1(=O)OC[C@@H]2[C@H](CO1)[C@]1(Cl)C(Cl)=C(Cl)[C@@]2(Cl)C1(Cl)Cl` [Endosulfan sulfate] had an IC50 of 16.1 µM.

Turning to `Cc1ccc(C=C2C(=O)C3(C)CCC2C3(C)C)cc1` (stereo not shown) [Enzacamene], the IC50 was 30.7 µM.

As for `CCN1CCCC1CNC(=O)C(O)(c1ccccc1)c1ccccc1` (stereo not shown) [Epicainide], inhibition was half-maximal at 19.7 µM (IC50).

`CCOC(CN1CCN(CC(C)C(=O)c2ccccc2)CC1)c1ccccc1` (stereo not shown) [Eprazinone dihydrochloride] gave an IC50 of 9.28 µM.

Compound `CN1C[C@H](C(=O)N[C@]2(C)O[C@@]3(O)[C@@H]4CCCN4C(=O)[C@H](Cc4ccccc4)N3C2=O)C=C2c3cccc4[nH]cc(c34)C[C@H]21` [Ergotamine D-tartrate] gave an IC50 of 11.9 µM.

Take `C[C@]12CC[C@@H]3c4ccc(O)cc4CC[C@H]3[C@@H]1CC[C@@H]2OC(=O)CCC1CCCC1` [Estradiol cypionate]: the IC50 was 43.6 µM.

`CC(=O)O[C@@H]1CC2C3CCc4cc(OC(=O)c5ccccc5)ccc4C3CCC2(C)[C@H]1OC(C)=O` (stereo partly shown) [Estriol benzoate diacetate] had an IC50 of 5.35 µM.

The compound `CCN(CC)CCOc1ccccc1C(=O)CCc1ccccc1` [Etafenone] had an IC50 of 3.25 µM.

Compound `C=C(C)CN(CC)c1c([N+](=O)[O-])cc(C(F)(F)F)cc1[N+](=O)[O-]` [Ethalfluralin] showed an IC50 of 36 µM.

In turn, `CCOC(=O)C1=NOC(c2ccccc2)(c2ccccc2)C1` [Ethyl 5,5-diphenyl-2-isoxazoline-3-carboxylate] gave an IC50 of 36.7 µM.

With `CCc1cc(Cl)c(OC)c(C(=O)NC[C@@H]2CCCN2CC)c1O` [Eticlopride hydrochloride], inhibition was half-maximal at 7.56 µM (IC50).

In the case of `CCC(CN)=C(c1ccccc1)c1ccccc1` [Etifelmine hydrochloride], 20.5 µM corresponded to half-maximal inhibition (IC50).

`O=C(OCCOCCO)c1ccccc1Nc1cccc(C(F)(F)F)c1` [Etofenamate] showed an IC50 of 13.4 µM.

`CCOc1cc(C(C)(C)C)ccc1C1COC(c2c(F)cccc2F)=N1` (stereo not shown) [Etoxazole] showed an IC50 of 13.8 µM.

Regarding `Cc1[nH]cnc1C[C@H]1CCc2c(C)c3ccccc3n2C1=O` [Fabesetron hydrochloride], the IC50 was 7.01 µM.

The compound `CC1(c2ccc(Oc3ccccc3)cc2)OC(=O)N(Nc2ccccc2)C1=O` (stereo not shown) [Famoxadone] gave an IC50 of 22.9 µM.

The compound `CC(C)=CCCC(C)=CCCC(C)=CCO` [Farnesol] had an IC50 of 47.1 µM.

In the case of `OC(c1ccc(Cl)cc1)(c1cncnc1)c1ccccc1Cl` (stereo not shown) [Fenarimol], the IC50 was 47.9 µM.

The compound `N#CC(CCc1ccc(Cl)cc1)(Cn1cncn1)c1ccccc1` (stereo not shown) [Fenbuconazole] had an IC50 of 18.1 µM.

Regarding `CCOC(=O)c1nc(C(Cl)(Cl)Cl)n(-c2ccc(Cl)cc2Cl)n1` [Fenchlorazole-ethyl], the IC50 was 49 µM.

Regarding `CC(NCCC(c1ccccc1)c1ccccc1)c1ccccc1` (stereo not shown) [Fendiline hydrochloride], the IC50 is 1.69 µM.

Take `O=C(CN1CCN(Cc2ccc3c(c2)OCO3)CC1)N1c2ccccc2Sc2ccccc21` [Fenoverine]: the IC50 was 3.51 µM.

Compound `CCOC(=O)[C@@H](C)Oc1ccc(Oc2nc3ccc(Cl)cc3o2)cc1` [Fenoxaprop-P-ethyl] gave an IC50 of 26 µM.

Compound `CCOC(=O)C(C)Oc1ccc(Oc2nc3ccc(Cl)cc3o2)cc1` (stereo not shown) [Fenoxaprop-ethyl] gave an IC50 of 30.9 µM.

In the case of `CCOC(=O)NCCOc1ccc(Oc2ccccc2)cc1` [Fenoxycarb], the IC50 was 45.3 µM.

As to `Clc1ccc(C(Cn2ccnc2)OCc2ccc(Sc3ccccc3)cc2)c(Cl)c1` (stereo not shown) [Fenticonazole], it took 12.5 µM to reach half-maximal inhibition (IC50).

`O=C(COc1ccc(Cl)cc1)N1CCN(Cc2ccc3c(c2)OCO3)CC1` [Fipexide hydrochloride] gave an IC50 of 16.1 µM.

As for `CCCCOC(=O)[C@@H](C)Oc1ccc(Oc2ccc(C(F)(F)F)cn2)cc1` [Fluazifop-P-butyl], the IC50 was 22 µM.

On to `CCCCOC(=O)C(C)Oc1ccc(Oc2ccc(C(F)(F)F)cn2)cc1` (stereo not shown) [Fluazifop-butyl], for which the IC50 is 23.2 µM.

Consider `O=C(NC(=O)c1c(F)cccc1F)Nc1ccc(Oc2ccc(C(F)(F)F)cc2Cl)cc1F` [Flufenoxuron], for which the IC50 is 37.4 µM.

The compound `CCOC(=O)COc1cc(-n2ncc(C(F)(F)F)c(C)c2=O)c(F)cc1Cl` [Flufenpyr-ethyl] gave an IC50 of 30.9 µM.

In the case of `CCCCCOC(=O)COc1cc(N2C(=O)C3=C(CCCC3)C2=O)c(F)cc1Cl` [Flumiclorac-pentyl], half-maximal inhibition (IC50) was put at 16.4 µM.

In turn, `O=C1OC2(c3ccc(O)cc3Oc3cc(O)ccc32)c2ccccc21` [Fluorescein] showed an IC50 of 21.9 µM.

For the compound `O=[N+]([O-])c1ccc(Oc2ccc(C(F)(F)F)cc2[N+](=O)[O-])cc1` [Fluorodifen], the IC50 was 7.76 µM.

In the case of `CCOC(=O)COC(=O)c1cc(Oc2ccc(C(F)(F)F)cc2Cl)ccc1[N+](=O)[O-]` [Fluoroglycofen-ethyl], it took 13.8 µM to reach half-maximal inhibition (IC50).

Consider `OCCN1CCN(CCCN2c3ccccc3Sc3ccc(C(F)(F)F)cc32)CC1` [Fluphenazine], for which the IC50 was 2.79 µM.

The compound `CCOC(=O)Nc1ccc(NCc2ccc(F)cc2)nc1N` [Flupirtine maleate] had an IC50 of 19 µM.

As for `CCN(CC)CCN1C(=O)CN=C(c2ccccc2F)c2cc(Cl)ccc21` [Flurazepam], the IC50 is 3.79 µM.

`CCCCCCC(C)OC(=O)COc1nc(F)c(Cl)c(N)c1Cl` (stereo not shown) [Fluroxypyr-meptyl]: half-maximal inhibition (IC50) required 38.9 µM.

For the compound `C[Si](Cn1cncn1)(c1ccc(F)cc1)c1ccc(F)cc1` [Flusilazole], the IC50 is 40.2 µM.

`COC(=O)CSc1cc(N=c2sc(=O)n3n2CCCC3)c(F)cc1Cl` [Fluthiacet-methyl] had an IC50 of 38.9 µM.

In the case of `CC(C)Oc1cccc(NC(=O)c2ccccc2C(F)(F)F)c1` [Flutolanil], half-maximal inhibition (IC50) required 50.9 µM.

Take `O=C1c2ccccc2C(=O)N1SC(Cl)(Cl)Cl` [Folpet]: the IC50 is 27.5 µM.

In the case of `c1ccc(OCc2ccc(CCCN3CCOCC3)cc2)cc1` [Fomocaine], half-maximal inhibition (IC50) required 10.7 µM.

Consider `CN1CCN(CCC(=O)N2c3ccccc3Sc3ccc(C(F)(F)F)cc32)CC1` [Ftormetazine], for which the IC50 was 4.96 µM.

For `COc1ccccc1N1CCN(CCCCNC(=O)c2ccc(-c3ccc(C(C)=O)cc3)cc2)CC1` [GR 103691], the IC50 is 3.01 µM.

`CCN(C(=O)c1cc(C)cc(OC[C@H](C)Nc2ccncc2)c1)C(C)C` [GW473178E methyl benzene sulphonic acid] had an IC50 of 15.9 µM.

In turn, `COc1ccc(CCN(C)CCCC(C#N)(c2cc(OC)c(OC)c(OC)c2)C(C)C)cc1OC` (stereo not shown) [Gallopamil hydrochloride] gave an IC50 of 7.28 µM.

In turn, `CN(C)c1ccc(C(=C2C=CC(=[N+](C)C)C=C2)c2ccc(N(C)C)cc2)cc1` [Gentian Violet] gave an IC50 of 2.79 µM.

For the compound `CCN(CC)C(=O)c1cc(S(=O)(=O)Cc2ccccc2)c(N2CCC(c3ccccc3)CC2)cc1N(CC)CCN(C)C` [HMR1171 trifluoroacetate (1:1)], the IC50 was 2.72 µM.

Compound `Cc1c(Cl)c(=O)oc2cc(OP(=O)(OCCCl)OCCCl)ccc12` [Haloxon] had an IC50 of 22.1 µM.

In turn, `COC(=O)C(C)Oc1ccc(Oc2ncc(C(F)(F)F)cc2Cl)cc1` (stereo not shown) [Haloxyfop-methyl] showed an IC50 of 35.1 µM.

Take `ClC1=C(Cl)[C@]2(Cl)[C@@H]3[C@@H](Cl)[C@H]4O[C@H]4[C@@H]3C1(Cl)C2(Cl)Cl` [Heptachlor epoxide B]: inhibition was half-maximal at 38.9 µM (IC50).

`ClC1=C(Cl)C2(Cl)C3C(Cl)C=CC3C1(Cl)C2(Cl)Cl` (stereo not shown) [Heptachlor] showed an IC50 of 31 µM.

Compound `CCCCCCCCCCCCCCCC[N+](C)(C)C` [Hexadecyl trimethyl ammonium chloride] gave an IC50 of 18.1 µM.

Compound `CCCCCCCCCCCCCCCC[N+](C)(C)C` [Hexadecyltrimethylammonium bromide] had an IC50 of 20.1 µM.

`CCCCC(CC)CN1CN(CC(CC)CCCC)CC(C)(N)C1` (stereo not shown) [Hexetidine]: it took 3.01 µM to reach half-maximal inhibition (IC50).

Values taken from paper PMC8869358, “High-Throughput Chemical Screening and Structure-Based Models to Predict hERG Inhibition” (Biology, 2022).
